In data set [1] the test system is SKOV3 (human ovarian carcinoma) cells. The experiment in a line: In vitro cytotoxicity (antiproliferative activity), CCK-8 assay, SKOV3. Format: cell-based. Conditions: Homo sapiens, SK-OV-3, 48 h exposure, CCK-8. The protocol: (§1) In vitro cytotoxicity of the phosphorated aspartic acid derivatives was evaluated by testing their antiproliferative activities against several human cancer cell lines. Cell counting kit (CCK-8) assay was used for the evaluation of growth inhibition. […] In addition, trisubstituted aminophosphonate 9a (Imine precursor, R^1 = H, R^2 = P(O)(OMe)2) and tetrasubstituted aminophosphonate 18 (R^1 = Me, R^2 = P(O)(OMe)2) are used as templates in order to evaluate the effect of the substituents (Table 1).
(§2) Human epithelial lung carcinoma cells (A549) (ATCC® CCL-185™, ATCC, Manassas, VA, USA) were grown in Kaighn’s Modification of Ham’s F-12 Medium (ATCC® 30-2004™, ATCC, Manassas, VA, USA) and lung fibroblast cells (MRC5) (ATCC® CCL-171™, ATCC, Manassas, VA, USA) were grown in Eagle’s Minimum Essential Medium (EMEM, ATCC® 30-2003™, ATCC, Manassas, VA, USA). Epithelial ovary adenocarcinoma cells (SKOV3) (ATCC® HTB-77™, ATCC, Manassas, VA, USA) were grown in McCoy’s 5A medium (ATCC® 30-2007™, ATCC, Manassas, VA, USA). All of them were supplemented with 10% of fetal bovine serum (FBS) (Sigma-Aldrich, Madrid, Spain) and with 1% of NORMOCIN solution (Thermo Fisher, Waltham, MA, USA). Cells were incubated at 37 °C and 5% CO2 atmosphere, and were split every 3–4 days to maintain monolayer coverage. For the cytotoxicity experiments, the A549 and SKOV3 cells were seeded in 96-well plates at a density of 2.5–3 × 10^3 cells per well and incubated overnight to achieve 70% of confluence at the time of exposition to the cytotoxic compound.
(§3) Cells were exposed to different concentrations of the cytotoxic compounds and were incubated for 48 h. Then, 10 µL of cell counting kit-8 was added into each well for an additional two hours’ incubation at 37 °C. The absorbance of each well was determined by an Automatic Elisa Reader System (Thermo Scientific Multiskan FC Automatic Elisa Reader System, Thermo Scientific, Shanghai, China) at 450 nm wavelength.
(Tetrazolium dyes change colour on reduction, which living cells bring about.)

The test system of data set [2] is MRC5 lung fibroblast cells. Put plainly: Selective toxicity, CCK-8 assay, non-malignant MRC5 lung fibroblasts. The data set is classed as cell-based. The following applies: for IC50: Homo sapiens, non-malignant MRC5 lung fibroblasts, 48 h exposure, CCK-8. The method, then: as §1, §2, §3
Data set [3] concerns A549 (carcinomic human alveolar basal epithelial) cells. The experiment in a line: In vitro cytotoxicity (antiproliferative activity), CCK-8 assay, A549. The data set is classed as cell-based. Conditions: 48 h exposure, CCK-8. The protocol:
as §1, §2, §3

As usually defined, the melting point is the temperature, or range, at which the solid turns liquid. What is called IC50 is the concentration that gives 50% inhibition. Consider `CCOC(=O)CC(NS(=O)(=O)c1ccc(C)cc1)(c1ccc(F)cc1)P(=O)(OC)OC` (stereo not drawn) [7j, Ethyl 3-(dimethoxyphosphoryl)-3-(4-fluorophenyl)-3-((4-methylphenyl)sulfonamido)propanoate], for which the melting point is 111 to 112 °C. For the same molecule, the IC50 in data set [1] is > 50 µM. In data set [2], the IC50 is > 50 µM. In data set [3] (Homo sapiens, A549, 48 h), this molecule came in with an IC50 of 7.15 ± 0.24 µM.

In turn, `CCOC(=O)CC(NS(=O)(=O)c1ccc(C)cc1)(c1cccc(F)c1)P(=O)(OC)OC` (stereo not drawn) [7k, Ethyl 3-(dimethoxyphosphoryl)-3-(3-fluorophenyl)-3-((4-methylphenyl)sulfonamido)propanoate] had a melting point of 111 to 112 °C. The IC50 in data set [1] is > 50 µM. In addition, the IC50 in data set [2] was > 50 µM. 0.59 ± 0.09 µM corresponded to half-maximal inhibition in data set [3] (IC50). Further, the IC50 in data set [3] (Homo sapiens, A549, 48 h) came to 0.34 µM.

On to `CCOC(=O)CC(NS(=O)(=O)c1ccc(C)cc1)(c1ccccc1F)P(=O)(OC)OC` (stereo not drawn) [7l, Ethyl 3-(dimethoxyphosphoryl)-3-(2-fluorophenyl)-3-((4-methylphenyl)sulfonamido)propanoate], for which the melting point lay within 140 to 141 °C. In addition, the IC50 in data set [1] is > 50 µM. For the same molecule, the IC50 in data set [2] was > 50 µM. In data set [3] (Homo sapiens, A549, 48 h), this molecule yielded an IC50 of 0.9 ± 0.12 µM.

`CCOC(=O)CC(NS(=O)(=O)c1ccc(C)cc1)(c1ccc(F)cc1F)P(=O)(OC)OC` (stereo not drawn) [7m, Ethyl 3-(2,4-difluorophenyl)-3-(dimethoxyphosphoryl)-3-((4-methylphenyl)sulfonamido)propanoate] registered a melting point of 135 to 136 °C. Also, in data set [1], the IC50 was > 50 µM. In addition, the IC50 in data set [2] was > 50 µM. Also, the IC50 in data set [3] (Homo sapiens, A549, 48 h) came to 2.24 ± 0.31 µM.

With `CCOC(=O)CC(NS(=O)(=O)c1ccc(C)cc1)(c1ccc(F)c(F)c1)P(=O)(OC)OC` (stereo not drawn) [7n, Ethyl 3-(3,4-difluorophenyl)-3-(dimethoxyphosphoryl)-3-((4-methylphenyl)sulfonamido)propanoate], the melting point was in the range of 98 to 99 °C. Moreover, in data set [1], the IC50 is > 50 µM. Also, in data set [2], the IC50 was > 50 µM. For the same molecule, in data set [3] (Homo sapiens, A549, 48 h), the IC50 was 5.7 ± 0.7 µM.

In turn, `CCOC(=O)CC(NS(=O)(=O)c1ccc(C)cc1)(c1ccc(C(F)(F)F)cc1)P(=O)(OC)OC` (stereo not drawn) [7p, Ethyl 3-(dimethoxyphosphoryl)-3-((4-methylphenyl)sulfonamido)-3-(4-(trifluoromethyl)phenyl)propanoate] came in with a melting point of 114 to 115 °C. Half-maximal inhibition in data set [1] (IC50) required 9.8 ± 0.6 µM. The IC50 in data set [2] is > 50 µM. Besides, the “toxicity toward MRC5 non-malignant cells (in words)” value in data set [2] (MRC5 cells) is listed as “no toxicity”. The molecule further showed an IC50 in data set [3] (Homo sapiens, A549, 48 h) of 20.3 ± 1.14 µM.

With `CCOC(=O)CC(NS(=O)(=O)c1ccc(C)cc1)(c1ccc([N+](=O)[O-])cc1)P(=O)(OC)OC` (stereo not drawn) [7q, Ethyl 3-(dimethoxyphosphoryl)-3-((4-methylphenyl)sulfonamido)-3-(4-nitrophenyl)propanoate], the melting point was 129 to 130 °C. Further, the IC50 in data set [1] was > 50 µM. The IC50 in data set [2] was > 50 µM. Also, in data set [3] (Homo sapiens, A549, 48 h), the IC50 came to 0.67 ± 0.06 µM.

In turn, `CCOC(=O)CC(NS(=O)(=O)c1ccc(C)cc1)(c1ccc(Cl)s1)P(=O)(OC)OC` (stereo not drawn) [7r, Ethyl 3-(5-chlorothiophen-2-yl)-3-(dimethoxyphosphoryl)-3-((4-methylphenyl)sulfonamido)propanoate] displayed a melting point of 93 to 94 °C. For the same molecule, the IC50 in data set [1] stood at 11.8 ± 0.6 µM. The IC50 in data set [2] is > 50 µM. In addition, inhibition in data set [3] (Homo sapiens, A549, 48 h) was half-maximal at 1.04 ± 0.28 µM (IC50).

`CCOC(=O)CC(NS(=O)(=O)c1ccc(C)cc1)(c1ccc(-c2ccccc2)cc1)P(=O)(OC)OC` (stereo not drawn) [7s, Ethyl 3-([1,1’-biphenyl]-4-yl)-3-(dimethoxyphosphoryl)-3-((4-methylphenyl)sulfonamido)propanoate] returned a melting point of 112 to 113 °C. This molecule also came in with an IC50 in data set [1] of 17 ± 1.22 µM. In addition, the IC50 in data set [2] is > 50 µM. In addition, in data set [3] (Homo sapiens, A549, 48 h), half-maximal inhibition (IC50) was put at 1.48 ± 0.4 µM.

`COP(=O)(OC)C(CC(=O)OCc1ccccc1)(NS(=O)(=O)c1ccc(C)cc1)c1ccccc1` (stereo not drawn) [13b, Benzyl 3-(dimethoxyphosphoryl)-3-((4-methylphenyl)sulfonamido)-3-phenylpropanoate] returned a melting point of 84 to 85 °C. The IC50 in data set [1] is > 50 µM. In addition, in data set [2], the IC50 was > 50 µM. In addition, in data set [3] (Homo sapiens, A549, 48 h), the IC50 is 5.2 ± 0.16 µM.

These data come from paper PMC9693455, “Synthesis of Tetrasubstituted Phosphorus Analogs of Aspartic Acid as Antiproliferative Agents” (Molecules, 2022).
